test system: M. tuberculosis H37Rv_gfp; type: cell-based, Mycobacterium tuberculosis; conditions: in combination with pretomanid 20 ng·mL−1; 5 days at 37° C.; […]; read-out: EC50 H37Rv_gfp

Row | Compound | EC50
1 | O=C(Nc1nc2ccc(OC(F)(F)F)cc2s1)[C@@H]1C2C=CC(C2)[C@@H]1C(=O)O (stereo partly shown) [Example 44, 3-[[6-(trifluoromethoxy)-1,3-benzothiazol-2-yl]carbamoyl]bicyclo[2.2.1]hept-5-ene-2-carboxylic acid] | < 1000 nM
2 | C#CCOc1cccc2sc(NC(=O)[C@@H]3C4C=CC(C4)[C@@H]3C(=O)O)nc12 (stereo partly shown) [Example 75, 3-[(4-prop-2-ynoxy-1,3-benzothiazol-2-yl)carbamoyl]bicyclo[2.2.1]hept-5-ene-2-carboxylic acid] | < 1000 nM
3 | O=C(Nc1nc2ccc(Oc3ccnc(C(F)(F)F)c3)cc2s1)[C@@H]1C2C=CC(C2)[C@@H]1C(=O)O (stereo partly shown) [Example 32, 3-[[6-[[2-(trifluoromethyl)-4-pyridyl]oxy]-1,3-benzothiazol-2-yl]carbamoyl]bicyclo[2.2.1]hept-5-ene-2-carboxylic acid] | < 1000 nM
4 | O=C(Nc1nc2ccc(Oc3ccc(Br)cn3)cc2s1)[C@@H]1C2C=CC(C2)[C@@H]1C(=O)O (stereo partly shown) [Example 37, 3-[[6-[(5-bromo-2-pyridyl)oxy]-1,3-benzothiazol-2-yl]carbamoyl]bicyclo [2.2.1]hept-5-ene-2-carboxylic acid] | 1000 to 5000 nM
5 | CCOc1ccc2nc(N3C(=O)[C@@H]4[C@H](C3=O)[C@@H]3C=C[C@H]4C3)sc2c1 [Example 8, (1R,2S,6R,7S)-4-(6-ethoxy-1,3-benzothiazol-2-yl)-4-azatricyclo[5.2.1.02,6]dec-8-ene-3,5-dione] | < 1000 nM
6 | O=C(Nc1nc2ccc(Nc3ccc(F)cn3)cc2s1)[C@@H]1C2C=CC(C2)[C@@H]1C(=O)O (stereo partly shown) [Example 86, 3-[[6-[(5-fluoro-2-pyridyl)amino]-1,3-benzothiazol-2-yl]carbamoyl]bicyclo[2.2.1]hept-5-ene-2-carboxylic acid] | < 1000 nM
7 | O=C(Nc1nc2ccc(C#Cc3ccccc3)cc2s1)[C@@H]1C2C=CC(C2)[C@@H]1C(=O)O (stereo partly shown) [Example 77, 3-[[6-(2-phenylethynyl)-1,3-benzothiazol-2-yl]carbamoyl]bicyclo[2.2.1]hept-5-ene-2-carboxylic acid] | < 1000 nM
8 | O=C1[C@@H]2[C@H](C(=O)N1c1nc3ccc(Oc4ccc(C(F)(F)F)cc4)cc3s1)[C@@H]1C=C[C@H]2C1 [Example 23, (1R,2S,6R,7S)-4-[6-[4-(trifluoromethyl)phenoxy]-1,3-benzothiazol-2-yl]-4-azatricyclo[5.2.1.02,6]dec-8-ene-3,5-dione] | 1000 to 5000 nM
9 | O=C1[C@@H]2[C@H](C(=O)N1c1nc3ccc(Oc4ccc(C(F)(F)F)cn4)cc3s1)[C@@H]1C=C[C@H]2C1 [Example 36, (1R,2S,6R,7S)-4-[6-[[5-(trifluoromethyl)-2-pyridyl]oxy]-1,3-benzothiazol-2-yl]-4-azatricyclo[5.2.1.02,6]dec-8-ene-3,5-dione] | < 1000 nM
10 | COC(=O)c1ccc2nc(NC(=O)[C@@H]3C4C=CC(C4)[C@@H]3C(=O)O)sc2c1 (stereo partly shown) [Example 41, 3-[(6-methoxycarbonyl-1,3-benzothiazol-2-yl)carbamoyl]bicyclo[2.2.1]hept-5-ene-2-carboxylic acid] | 1000 to 5000 nM
11 | O=C1[C@@H]2[C@H](C(=O)N1c1nc3ccc(-c4ccc(C(F)(F)F)cc4)cc3s1)[C@@H]1C=C[C@H]2C1 [Example 61, (1R,2S,6R,7S)-4-[6-[4-(trifluoromethyl)phenyl]-1,3-benzothiazol-2-yl]-4-azatricyclo[5.2.1.02,6]dec-8-ene-3,5-dione] | < 1000 nM
12 | Cc1ccc2nc(NC(=O)[C@@H]3C4CCC(C4)[C@@H]3C(=O)O)sc2c1 (stereo in doubt) [Example 3, 3-[(6-methyl-1,3-benzothiazol-2-yl)carbamoyl]norbornane-2-carboxylic acid] | 1000 to 5000 nM
13 | Cc1cc(C)c2nc(NC(=O)[C@@H]3C4C=CC(C4)[C@@H]3C(=O)O)sc2c1 (stereo partly shown) [Example 13, 3-[(4,6-dimethyl-1,3-benzothiazol-2-yl)carbamoyl]bicyclo[2.2.1]hept-5-ene-2-carboxylic acid] | < 1000 nM
14 | O=C1[C@@H]2C3C=CC(C3)[C@@H]2C(=O)N1c1nc2ccc(Nc3ccc(C(F)(F)F)cn3)cc2s1 [Example 95] | < 1000 nM

same assay, conditions: in combination with pretomanid, unit inferred; read-out: average EC50 H37Rv_gfp

Row | Compound | EC50
15 | O=C(Nc1nc2ccc(Oc3ccnc(C(F)(F)F)c3)cc2s1)[C@@H]1C2C=CC(C2)[C@@H]1C(=O)O (stereo partly shown) [Example 32, 3-[[6-[[2-(trifluoromethyl)-4-pyridyl]oxy]-1,3-benzothiazol-2-yl]carbamoyl]bicyclo[2.2.1]hept-5-ene-2-carboxylic acid] | 320 nM
16 | O=C1[C@@H]2[C@H](C(=O)N1c1nc3ccc(Oc4ccc(C(F)(F)F)cn4)cc3s1)[C@@H]1C=C[C@H]2C1 [Example 36, (1R,2S,6R,7S)-4-[6-[[5-(trifluoromethyl)-2-pyridyl]oxy]-1,3-benzothiazol-2-yl]-4-azatricyclo[5.2.1.02,6]dec-8-ene-3,5-dione] | 220 nM

Reference: US20250382273A1 (INSTITUT NATIONAL DE LA SANTE ET DE LA RECHERCHE MEDICALE, priority 2022, published 2025)
